Data taken from patent EP1439177B1, “Antiviral activity and resolution of 2-hydroxymethyl-5-(5-fluorocytosin-1-yl)-1,3-oxathiolane” (Emory University, priority 1991, dated 1992).
Read-outs that look alike come from different tables or passages of the source.

Key:
[1] = tested on: human PBM cells; assay: Egress of radiolabeled FTC from human PBM cells; format: in vitro ADME; settings: 48 hours after the removal of the extracellular drug
Procedure: This study measures the time needed for intracellular levels of triphosphates to decline. Studies were conducted in duplicate. Uninfected cells (2 x 10^6 ml) were suspended in the appropriate medium supplemented with serum (10 ml per timepoint) and incubated at 37°C in a 5% CO2 incubator. The radiolabeled FTC concentration was 10 µM. After pulsing the cells with the labeled compound for 24 hours, the cells were thoroughly washed and then replenished with fresh medium without the antiviral drugs (0 hr). At 0, 2, 4, 6, 12, 24, and 48 hours (second incubation time), the cells were removed, and immediately extracted with 60% cold methanol/water. The extract was obtained by centrifugation and removal of the cell pellet. The extracts were lyophilized and then stored at -70°C. Prior to analysis, the material was resuspended in 250 microliters of HPLC buffer and immediately analyzed. Quantitation of intracellular parent drug and metabolic derivatives was conducted by HPLC, using either a Micromeritics or Hewlett-Packard model 1090 PHLC system with an anion exchange Partisel 10 SAX column (Whatman, Inc.), at a flow rate of 1 ml/min, 1 kpsi pressure, with UV detection at 262 nm. The mobile phase consisted of deionized water (A), 2 mM NaH2PO4/16 mM NaOAc (pH = 6.6) (B), 15 mM NaH2PO4/120.2 mM NaOAc (pH = 6.6) (C), and 100 mM NaH2PO4/800 mM NaOAc (pH = 6.6) (D). […]

[2] = molecular target: HIV-1 reverse transcriptase (RT); assay: Competitive inhibition of HIV-1 reverse transcriptase, poly(I)oligo(dC) template-primer; format: biochemical; settings: read-out: K1 (affinity), competitive inhibition
Procedure: (§1) Toxicity and pharmacokinetic studies confirm the usefulness of FTC as an antiviral agent for pharmaceutical administration. FTC and its enantiomers are nontoxic to peripheral human bone marrow cells at concentrations up to 50 µM and other cell lines at concentrations up to 200 µM. FTC-TP is a major intracellular metabolite in PBMC and HepG2 cells.

[3] = molecular target: HIV-RT (Human immunodeficiency virus type 1 group M subtype B, UniProt P04585); assay: DNA chain termination by sequencing analysis; format: biochemical
Procedure: as §1

[4] = tested on: SIV; assay: microbe, parasite or virus in culture; settings: Simian immunodeficiency virus
Procedure: (§2) Cell lines were obtained from either human donors, AIDS Research and Reference Reagent Program, NIH, Rockville, Maryland, ATCC, or the Red Cross. The CEM thymidine kinase deficient cells were prepared by sequential passage of CEM cells in the presence of 5-bromo-2'-deoxyuridine.

[5] = tested on: HIV-2; assay: microbe, parasite or virus in culture; settings: Human immunodeficiency virus 2, PBMC
Procedure: as §2

[6] = tested on: FIV; assay: microbe, parasite or virus in culture; settings: Feline immunodeficiency virus, CRFK
Procedure: as §2

[7] = tested on: HIV-1; assay: microbe, parasite or virus in culture
Procedure: as §2

[8] = tested on: HIV-1 (strain LAV); assay: microbe, parasite or virus in culture; format: cell-based; settings: Human immunodeficiency virus 1, PBMC
From the text: It is often desirable to screen a number of racemic mixtures of nucleosides as a preliminary step to determine which warrant further resolution into enantiomerically enriched components and further evaluation of antiviral activity. The ability of nucleosides to inhibit HIV can be measured by various experimental techniques. The technique used herein, and described in detail below, measures the inhibition of viral replication in phytohemagglutinin (PHA) stimulated human peripheral blood mononuclear (PBM) cells infected with HIV-1 (strain LAV). The amount of virus produced is determined by measuring the virus-coded reverse transcriptase enzyme. The amount of enzyme produced is proportional to the amount of virus produced.
• A. Three-day-old phytohemagglutinin-stimulated PBM cells (10^6 cells/ml) from hepatitis B and HIV-1 seronegative healthy donors were infected with HIV-1 (strain LAV) at a concentration of about 100 times the 50% tissue culture infectious dose (TICD 50) per ml and cultured in the presence and absence of various concentrations of antiviral compounds. • B. Approximately one hour after infection, the medium, with the compound to be tested (2 times the final concentration in medium) or without compound, was added to the flasks (5 ml; final volume 10 ml). AZT was used as a positive control. • C. The cells were exposed to the virus (about 2 x 10^5 dpm/ml, as determined by reverse transcriptase assay) and then placed in a CO2 incubator. HIV-1 (strain LAV) was obtained from the Center for Disease Control, Atlanta, Georgia. The methods used for culturing the PBM cells, harvesting the virus and determining the reverse transcriptase activity were those described by McDougal et al. (J. Immun. Meth. 76, 171-183, 1985) and Spira et al. (J. Clin. Meth. 25, 97-99, 1987), except that fungizone was not included in the medium (see Schinazi, et al., Antimicrob. Agents Chemother. 32, 1784-1787 (1988); Id., 34:1061-1067 (1990)). • D. On day 6, the cells and supernatant were transferred to a 15 ml tube and centrifuged at about 900 g for 10 minutes. Five ml of supernatant were removed and the virus was concentrated by centrifugation at 40,000 rpm for 30 minutes (Beckman 70.1 Ti rotor). The solubilized virus pellet was processed for determination of the levels of reverse transcriptase. Results are expressed in dpm/ml of sampled supernatant. Virus from smaller volumes of supernatant (1 ml) can also be concentrated by centrifugation prior to solubilization and determination of reverse transcriptase levels.

[9] = in vitro; settings: human, cem cells
[10] = in vivo; settings: rhesus monkey, 33.3 mg/kg; for clearance: CLT, I.V. 33.3 mg/kg
[11] = tested on: HIV; assay: microbe, parasite or virus in culture; format: cell-based; settings: Human immunodeficiency virus 1
[12] = Chronic oral treatment of rodents, toxicity; format: in vivo; settings: oral doses of 85 mg/kg per day for at least two months
[13] = tested on: peripheral human bone marrow cells; assay: Toxicity to peripheral human bone marrow cells; format: cell-based; settings: concentrations up to 50 µM
[14] = Growth inhibition of mitogen-stimulated uninfected human PBM cells, trypan blue exclusion; format: cell-based; settings: human, pbm cells
[15] = in vivo; settings: rat, plasma, iv
[16] = in vitro; settings: african green monkey, vero cells
[17] = tested on: other cell lines; assay: Toxicity to other cell lines; format: cell-based; settings: concentrations up to 200 µM
[18] = tested on: human PBM cells; assay: Uptake of radiolabeled FTC into human PBM cells; format: in vitro ADME; settings: 10 µM radiolabeled FTC, 2 to 24 hours; Figure 7
Procedure: All studies were conducted in duplicate.

With `Nc1nc(=O)n([C@@H]2CS[C@H](COP(=O)(O)OP(=O)(O)OP(=O)(O)O)O2)cc1F` (racemic) [FTC-TP] the intracellular concentration [1] was 1 to 5 µM, the Ki [2] was 200 nM and the “DNA chain terminator (C-stops)” value [3] was “potent DNA chain terminator”.
In the case of `Nc1nc(=O)n([C@@H]2CS[C@H](CO)O2)cc1F` (racemic) [(±)-FTC, (±)-β-D.L-2-hydroxymethyl-5-(5-fluorocytosin-1-yl)-1,3-oxathiolane], the EC50 [4] is reported as 4600 nM, the EC50 ([4]; C8166) is reported as less than 8000 nM and the EC50 [5] is reported as 3.8 nM. It also gave an EC50 [6] of no more than 1000 nM, an EC50 ([7]; Human immunodeficiency virus 1, CEM (HTLV1118) NIH) of 90 nM and an EC50 ([7]; Human immunodeficiency virus 1, CEM (LAV-1)) of 80 nM. For the same compound, the EC50 ([7]; Human immunodeficiency virus 1, CEM-TK(-), CEM-TK^(-) (LAV-1)) was 26 nM, the EC50 ([7]; Human immunodeficiency virus 1, MT2 (HTLV1118)) was 890 nM and the EC50 ([7]; Human immunodeficiency virus 1, PBMC, PBMC (LAV-1)) was 27 nM. It also gave an EC50 ([8]; read-out: Antiviral EC50) of 10 nM, an EC50 ([8]; read-out: activity in PBM cells) of roughly 10 nM and a CC50 [9] greater than 100000 nM. The Vd ([10]; iv) was 2 L/kg, the clearance ([10]; iv, Mean of three monkeys) was 24.8 mL/min/kg and the clearance ([10]; iv, individual monkeys RUh, RMi, RJd) was 29 mL/min/kg. For the same compound, the bioavailability ([10]; po, F (bioavailability), P.O. 33.3 mg/kg, individual monkeys RUh, RMi, RJd) was 80%, the IC50 [11] was 520 nM and the “toxicity of chronic treatment” value [12] was “not toxic”. The toxicity [13] was “nontoxic”, the CC50 at 144 h [14] was greater than 100000 nM and the clearance ([15]; 10 mg/kg) was 16.5 mL/min/kg. For the same compound, the half-life ([15]; 10 mg/kg) was 45.4 min, the MRT ([15]; 50 mg/kg) was 48 min and the clearance ([15]; 50 mg/kg) was 14.6 mL/min/kg. For the same compound, the half-life ([15]; 50 mg/kg) was 48.9 min, the clearance ([15]; 100 mg/kg) was 13.8 mL/min/kg and the half-life ([15]; 100 mg/kg) was 58.1 min. The CC50 [16] was greater than 100000 nM, the toxicity [17] was “nontoxic” and the “uptake in human lymphocytes” value [18] was “readily taken up”.
